Source: patent publication US20070009544A1, “Anti-allergic complex molecules” (priority 1999, published 2007)
In brackets after ≈: the same amount, converted by molar mass. Numbered stars: 1 amine (or outer) side, 2 acyl side, 3 side chain; on linkers, the order of the positions; unused ones are H or OH. Square brackets hold non-standard residues; d marks the D form. Ends that are not written are not given here. Peptide text beside a SMILES is read from it. Suc = O=C(CCC(=O)[*:2])[*:1]; Sar = CNCC(=O)O

Columns and labels:
[1] = tested on: purified rat peritoneal mast cells; type: cell-based; details: for maximal inhibition of compound 48/80 induced histamine secretion: 600 μg/ml peptide, compound 48/80 concentration not given; for Inhibitor (extent of inhibition of histamine secretion from mast cells): Table 9
Experimental: 37° C. […] Each data point represents the average of duplicate measurements. The spontaneously released histamine was subtracted.
First, the effect of compound 48/80 on exocytosis from intact mast cells was determined. […] Histamine release was determined and is presented as the net secretion that is % of the total cellular histamine following subtraction of the spontaneously released histamine. Half-maximal release was obtained at 0.1 μg/ml while maximal release was obtained at 1-10 μg/ml. Accordingly, in order to analyze the potential of each peptide to block histamine secretion, histamine secretion was induced with 5 μg/ml compound 48/80, a concentration that induces a maximal histamine release, while the cells were incubated in the presence of increasing concentrations of each peptide.
In order to investigate the ability of these peptides to block allergen-induced exocytosis, the peptides were examined for their ability to block compound 48/80 induced histamine secretion from intact mast cells in vitro. Mast cells were incubated with different concentrations of each peptide, followed by induction of histamine secretion by compound 48/80.

[2] = tested on: purified rat peritoneal mast cells; assay: Histamine secretion from intact mast cells incubated with peptide alone (secretagogue side effect); details: for Secretagogue (histamine secretion following incubation of mast cell with different concentrations of each peptide): no allergen; for histamine secretion from mast cells on incubation with increasing concentrations of peptide alone: no additional allergen
Experimental: Mast cells from the peritoneal cavity of C.R rats were isolated in Tyrode buffer (137 mM NaCl, 2.7 mM KC1, 1 mM MgCl2, 0.4 mM NaH2PO4, 20 mM Hepes, 1.0 mM CaCl2, 5.6 mM glucose, 1 mg/ml BSA, pH 7.2) and purified over a Ficoll gradient. A suspension of washed peritoneal cells was placed over a cushion of 30% Ficoll 400 (Pharmacia Biotech.) in buffered Saline containing 0.1% BSA; and centrifuged at 150O×g for 15 min. The purity of mast cells recovered from the bottom of the tube was >90%, as assessed by toluidine blue staining.
Purified mast cells (duplicated of 10^5 cells/0.5 ml) were incubated in Tyrode buffer with buffer or with desired concentrations of the indicated peptide for 2 h. at. 37° C. Histamine secretion was subsequently stimulated by the indicated concentration of compound 48/80 (Sigma) dissolved in Tyrode buffer. Incubation with compound 48/80 was carried out for 20 mm.in at 37° C. The reaction was terminated by placing the tubes on ice. The cells were sedimented by centrifugation at 150×g for 5 mm.in and the supernatants were collected. The amount of histamine release was determined as previously described (Aridor et al., 1990). Briefly, cell pellets were lysed using 0.1N NaOH and the volume of each sample was adjusted to 0.5 ml by H2O. Histamine content was assayed using the o-phtalaldehyde (OPT) fluorimetric method (Shore et al., 1959). Aliquots of 0.4 ml from the supernatants and cell lysates were incubated with 1.6 ml H20, 0.4 ml 1N NaOH and 0.1 ml of 10 mg/l ml OPT in methanol, for 4 min at room temperature. The reaction was terminated by the addition of 0.2 ml 3N HCl. Samples were centrifuged at 150×g for 5 min. and 0.2 ml samples were transferred to a 96 well plate. The histamine spectrofluorometric assay was run in microplates using a microplates reader (FL-600, Biotek instruments Winooski, Vt., USA). Samples were excited by light at 340 nm and read at 440 nm. Histamine release was calculated as the percentage of total histamine content (supernatant/pellet+supernatant) in each sample. Each data point represents the average of duplicate measurements. The spontaneously released histamine was subtracted.

[3] = tested on: abdominal skin of C.R rats; assay: Rat skin test: intradermal injection of peptide, then intradermal compound 48/80 or vehicle, wheal area; type: in vivo; details: for Mean Wheal Area ± STD, Compound 48/80: 0.5 hour before allergic induction; for Mean Wheal Area ± STD, Vehicle: 0.5 hour before, vehicle instead of compound 48/80
Experimental: The hair of the abdominal area of C.R rats was carefully removed with an electric clipper and a depilatory cream. In each animal the abdominal area was divided to six equal zones that were marked by pen. Each zone was either subjected to peptide treatment or served as a control. In the first set of experiments, the peptide was topically applied as follows: 36 μl of peptide solution at the indicated concentration (dissolved in 72% DMSO in saline) was applied on desired abdominal area. In the second set of experiments, the peptide was injected intradermally as follows: 20 μl of peptide solution at different concentrations (dissolved in 10% DMSO in saline) was injected intradermally to an indicated abdominal area using a 27-gauge sterile needle.
Skin tests were performed 0.5, 1 or 2 hours following application of the peptide. Skin tests were performed by injecting intradermally 20 μl of the allergen (0.1 mg/ml compound 48/80 dissolved in saline) or saline alone, into the center of each marked area on the abdominal skin using a 27-gauge sterile needle. The allergic response was monitored by outlining with a marker the wheals which developed in response to allergen or saline treatment.
To quantitate the skin test results, the marker signs were transferred onto paper with scotch tape. The areas of the wheals were outlined and calculated by a computerized planimeter (Hewlett-Packard), as previously described (Sussman et al., 1982).
Tables 10-16 presents the mean areas of the wheals, which developed in response to intradermal injection of each of the tested peptides, followed by either compound 48/80 or DDW injection applied after 0.5 or 1 hour. Two doses were tested for each peptide-20 and 200 μg (injection of 20 μl from a stock solution of 1 mg/ml or 10 mg/m respectively).
Skin tests on rats using compound 48/80 as the allergen assessed the ability of the peptides of the present invention to block allergic cutaneous reactions. The abdominal skin of the rats was subjected to peptide (indicated concentrations are listed in Tables 17A-17B below) or vehicle treatment (intradermal injection); the allergic response was induced by intradermal injection of compound 48/80 at various times; and the allergic response was quantified by calculating the area of the resultant allergic wheals.

[4] = incubation with different concentrations of each peptide, then induction of the allergic reaction

Compound: CC(C)C[C@H](NC(=O)CNC(=O)[C@H](CS)NC(=O)[C@H](CC(=O)O)NC(=O)[C@H](CCCCN)NC(=O)[C@H](CC(C)C)NC(=O)[C@H](CC(N)=O)NC(=O)[C@H](CCC(=O)O)NC(=O)[C@H](CCCCN)NC(=O)[C@@H]1CCCN1C(=O)[C@H](C)NC(=O)[C@H](CC(C)C)NC(=O)[C@H](CC(C)C)NC(=O)[C@H](C)NC(=O)[C@H](CC(C)C)NC(=O)[C@H](CC(C)C)NC(=O)[C@@H](NC(=O)[C@H](C)NC(=O)[C@@H]1CCCN1C(=O)[C@H](CC(C)C)NC(=O)[C@H](CC(C)C)NC(=O)[C@H](C)NC(=O)[C@@H](NC(=O)[C@H](C)NC(=O)[C@H](C)NC(=O)CCC(=O)O)C(C)C)C(C)C)C(=O)N[C@@H](Cc1ccccc1)C(=O)O [Peptide 5-Suc] (Suc-AAVALLPAVLLALLAPKENLKDCGLF-OH; C-terminus assumed)
- Inhibitor (degree of inhibition of histamine secretion from mast cells) ([1]; Table 1, incubation with different concentrations of each peptide, then induction of the allergic reaction): − (− No inhibition)
- Secretagogue (histamine secretion following incubation of mast cell with different concentrations of each peptide) ([2]; Table 1, peptide alone): +
- histamine secretion from mast cells on incubation with increasing concentrations of peptide alone [2]: induced histamine secretion from mast cells in a concentration dependent manner

Compound: CC(C)C[C@H](NC(=O)CNC(=O)[C@H](CS)NC(=O)[C@H](CCC(=O)O)NC(=O)[C@H](CCCCN)NC(=O)[C@H](CC(C)C)NC(=O)[C@H](CC(N)=O)NC(=O)[C@H](CC(N)=O)NC(=O)[C@H](CCCCN)NC(=O)CN(C)C(=O)[C@H](C)NC(=O)[C@H](CC(C)C)NC(=O)[C@H](CC(C)C)NC(=O)[C@H](C)NC(=O)[C@H](CC(C)C)NC(=O)[C@H](CC(C)C)NC(=O)[C@@H](NC(=O)[C@H](C)NC(=O)[C@@H]1CCCN1C(=O)[C@H](CC(C)C)NC(=O)[C@H](CC(C)C)NC(=O)[C@H](C)NC(=O)[C@@H](NC(=O)[C@H](C)NC(=O)[C@H](C)NC(=O)CCC(=O)O)C(C)C)C(C)C)C(=O)N[C@@H](Cc1ccc(O)cc1)C(=O)O [WALL008] (Suc-AAVALLPAVLLALLA[Sar]KNNLKECGLY-OH; C-terminus assumed)
- IC50, compound 48/80 induced histamine secretion [1]: 220 µg/mL (≈ 79.9 µM)
- maximal inhibition of compound 48/80 induced histamine secretion [1]: 98.7%
- Inhibitor (extent of inhibition of histamine secretion from mast cells) [1, 4]: +++ (+++ Potent inhibitor (≧80% inhibition))
- block of compound 48/80 induced allergic reaction in vivo, rat skin ([3]; intradermal peptide): effectively block the allergic response in vivo
- Mean Wheal Area ± STD, Compound 48/80 ([3]; intradermal peptide 1 mg/ml): 104.1 ± 18.5 (n = 4) mm^2
- Mean Wheal Area ± STD, Vehicle ([3]; intradermal peptide 1 mg/ml): 79.9 ± 22.3 (n = 4) mm^2
- Mean Wheal Area ± STD, Compound 48/80 ([3]; intradermal peptide 10 mg/ml): 73.7 ± 12.2 (n = 4) mm^2
- Mean Wheal Area ± STD, Vehicle ([3]; intradermal peptide 10 mg/ml): 72.8 ± 13.6 (n = 4) mm^2
- reduction of compound 48/80 induced allergic reaction ([3]; intradermal peptide 0.5 hour before allergic induction): significant inhibition
- Secretagogue (histamine secretion following incubation of mast cell with different concentrations of each peptide) ([2]; Table 9, peptide alone): −
- histamine secretion from mast cells on incubation with increasing concentrations of peptide alone [2]: did not result in histamine secretion
- basal level of histamine secretion compared to control cells ([2]; peptide alone, increasing concentrations): inhibition of the basal level of histamine secretion

Compound: CC(C)C[C@H](NC(=O)CNC(=O)[C@H](CS)NC(=O)[C@H](CCC(=O)O)NC(=O)[C@H](CCCCN)NC(=O)[C@H](CC(C)C)NC(=O)[C@H](CC(N)=O)NC(=O)[C@H](CO)NC(=O)[C@H](CCCCN)NC(=O)[C@@H]1CCCN1C(=O)[C@H](C)NC(=O)[C@H](CC(C)C)NC(=O)[C@H](CC(C)C)NC(=O)[C@H](C)NC(=O)[C@H](CC(C)C)NC(=O)[C@H](CC(C)C)NC(=O)[C@@H](NC(=O)[C@H](C)NC(=O)[C@@H]1CCCN1C(=O)[C@H](CC(C)C)NC(=O)[C@H](CC(C)C)NC(=O)[C@H](C)NC(=O)[C@@H](NC(=O)[C@H](C)NC(=O)[C@H](C)NC(=O)CCC(=O)O)C(C)C)C(C)C)C(=O)N[C@@H](Cc1ccc(O)cc1)C(=O)O [WALL011] (Suc-AAVALLPAVLLALLAPKSNLKECGLY-OH; C-terminus assumed)
- IC50, compound 48/80 induced histamine secretion [1]: 160 µg/mL (≈ 58.1 µM)
- maximal inhibition of compound 48/80 induced histamine secretion [1]: 87%
- Inhibitor (extent of inhibition of histamine secretion from mast cells) [1, 4]: +++ (+++ Potent inhibitor (≧80% inhibition))
- Secretagogue (histamine secretion following incubation of mast cell with different concentrations of each peptide) ([2]; Table 9, peptide alone): −
- histamine secretion from mast cells on incubation with increasing concentrations of peptide alone [2]: did not result in histamine secretion
- basal level of histamine secretion compared to control cells ([2]; peptide alone at 400-600 μg/ml): minor inhibition of the basal level of histamine secretion

Compound: AAVALLPAVLLALLAAKNNLKECGLY [WALL004]
- histamine secretion from mast cells, peptide alone ([2]; especially at a peptide concentration exceeding 200 μg/ml): moderate histamine secretion

Compound: AAVALLPAVLLALLAPKENLKDCGLF [Peptide 5]
- Secretagogue (histamine secretion following incubation of mast cell with different concentrations of each peptide) ([2]; Table 1, peptide alone): −

Compound: AAVALLPAVLLALLAPKNNLKDCGLF [Peptide 5m]
- Secretagogue (histamine secretion following incubation of mast cell with different concentrations of each peptide) ([2]; Table 1, peptide alone): +
- histamine secretion from mast cells on incubation with increasing concentrations of peptide alone [2]: induced histamine secretion from mast cells in a concentration dependent manner

Compound: AAVALLPAVLLALLAPKNNLKESGLY [Peptide 25]
- Secretagogue (histamine secretion following incubation of mast cell with different concentrations of each peptide) ([2]; Table 1, peptide alone): +
- histamine secretion from mast cells on incubation with increasing concentrations of peptide alone [2]: induced histamine secretion from mast cells in a concentration dependent manner

Compound: AAVALLPAVLLALLAPKQNLKECGLY [WALL006]
- IC50, compound 48/80 induced histamine secretion [1]: 560 µg/mL
- Secretagogue (histamine secretion following incubation of mast cell with different concentrations of each peptide) ([2]; Table 9, peptide alone): −
- histamine secretion from mast cells on incubation with increasing concentrations of peptide alone [2]: did not result in histamine secretion

Compound: AAVALLPAVLLALLAPLKDCGLF [Peptide 21]
- histamine secretion from mast cells, peptide alone ([2]; at higher doses of 400 and 600 μg/ml): induced some histamine secretion

Compound: AAVALLPAVLLALLAPLKECGLY [Peptide 20]
- Secretagogue (histamine secretion following incubation of mast cell with different concentrations of each peptide) ([2]; Table 1, peptide alone): −
- histamine secretion from mast cells on incubation with increasing concentrations of peptide alone [2]: did not induce histamine secretion

Compound: AAVALLPAVLLALLAPYLGCEKLNNK [WALL023]
- histamine secretion from mast cells, peptide alone ([2]; 600 μg/ml peptide): did not result in histamine secretion
- Secretagogue (histamine secretion following incubation of mast cell with different concentrations of each peptide) ([2]; Table 9, peptide alone): −

Compound: KAAVALLPAVLLALLAPKNNLKDCGLF [Peptide 12]
- Secretagogue (histamine secretion following incubation of mast cell with different concentrations of each peptide) ([2]; Table 1, peptide alone): +
- histamine secretion from mast cells on incubation with increasing concentrations of peptide alone [2]: induced histamine secretion from mast cells in a concentration dependent manner

Compound: KAAVALLPAVLLALLAPKNNLKECGLY [Peptide 13]
- Secretagogue (histamine secretion following incubation of mast cell with different concentrations of each peptide) ([2]; Table 1, peptide alone): +
- histamine secretion from mast cells on incubation with increasing concentrations of peptide alone [2]: induced histamine secretion from mast cells in a concentration dependent manner

Compound: RQPKIWFPNRRKPWKKKENLKDCGLF [Peptide 6]
- histamine secretion from mast cells on incubation with increasing concentrations of peptide alone [2]: induced histamine secretion from mast cells in a concentration dependent manner

Compound: RQPKIWFPNRRKPWKKKNNLKECGLY [Peptide 3]
- histamine secretion from mast cells on incubation with increasing concentrations of peptide alone [2]: induced histamine secretion from mast cells in a concentration dependent manner

Compound: VTVLALGALAGVGVGKENLKDCGLF [Peptide 4]
- stimulatory effect on histamine secretion ([2]; peptide alone, concentration range of up to 400 p.g/ml (FIG. 1A)): hardly any stimulatory effect
